Results taken from publication PMC9701179, “New tricyclic systems as photosensitizers towards triple negative breast cancer cells” (Archives of Pharmacal Research, 2022).
“Also recorded” adds a separate entry of the source. Read-outs that look alike come from different tables or passages of the source.

Columns and labels:
[1] = UVA photostability (UV-Vis spectra in PBS); format: physicochemical; conditions: for Stability under UVA irradiation (UV-Vis spectra): 2.2 × 10^−5 M, increasing UVA doses 0–20 J/cm^2; for Photodegradation at the light dose of the cytotoxic experiments: UVA 2 J/cm^2, decrease of absorbance of main UV-Vis peaks (data not shown)
Experimental: Samples containing each compound (2.2 × 10^− 5 M) dissolved in PBS (0.04 M) were irradiated with increasing UVA doses from 0 to 20 J/cm^2 ([…], 5, 10, 15 and 20 J/cm^2), and their absorption spectrum was measured, with a Cary 50 Scan UV–Visible Spectrophotometer.
The most significant 7h and 8e pyridone derivatives were tested for their stability under UVA irradiation. […] Moreover, isosbestic points were visible, indicating the formation of one or more new stable species in equilibrium with the intact dark compound.
Fig. 6 UV–Vis Absorption spectra of 7h (left) and 8e (right) in PBS irradiated under 0, 2, 5, 10, 15 and 20 J/cm^2 with UVA light. 0 J/cm^2, red spectrum; 20 J/cm^2, light green spectrum

MDA-MB-231 cells [2] = assay: MTT cytotoxicity/photocytotoxicity test on human TNBC MDA-MB-231 cells; format: cell-based; conditions: Homo sapiens
Experimental: The irradiation device used for the irradiation of cell cultures during the assays was a black box equipped with two Philips UVA lamps with an irradiance of 17 mW cm^−2 and a centered emission peak at 365 nm; UVA irradiance was measured using a Waldmann Variocontrol radiometer, equipped with a UVA sensor. The box was maintained at room temperature inside with a fan and the multiwell plates were placed onto a water-refrigerated metal block.
Human triple negative (TNBC) breast MDA-MB-231 carcinoma cells were obtained from American Type Culture Collection (ATCC, Rockville, MD, USA). Human embryonic kidney HEK293 cells were obtained from the European Collection of Cell Cultures (ECACC, Salisbury, UK). Cell lines were maintained in the logarithmic phase at 37 °C in a 5% CO2 atmosphere using the following culture media containing 10% foetal calf serum (Euroclone, Milan, Italy), antibiotics (50 units/mL penicillin and 50 μg/mL streptomycin) and 2 mM l-glutamine: (i) RPMI-1640 medium (Euroclone, Milan, Italy) for MDA-MB-231 4 cells; (ii) DMEM (Euroclone, Milan, Italy) for HEK293 cells.
Cells (5–8 × 10^3 cells/well, dependent upon the growth characteristics of the cell line) were seeded in 96-well microplates in growth medium (100 μL). After 24 h, the medium was removed and replaced with a fresh one containing the compound to be studied at the appropriate concentration. Triplicate cultures were established for each treatment. For photocytotoxicity studies, after 1 h of incubation the medium was replaced with PBS and cells were treated with 2.0 J cm^−2 of UVA light. After irradiation, PBS was replaced with complete proliferation media. For pre-irradiation studies, instead, compounds in PBS were irradiated with 2.0 J cm^−2 of UVA light and subsequently cells were treated with pre-irradiated solutions. Following 24 h, each well was treated with 10 μL of a 5 mg/mL MTT saline solution, and following 5 h of incubation, 100 μL of a sodium dodecyl sulfate (SDS) solution in HCl 0.01 M were added. After an overnight incubation, cell growth inhibition was detected by measuring the absorbance of each well at 570 nm using a Bio-Rad 680 microplate reader. Mean absorbance for each drug dose was expressed as a percentage of the control untreated well absorbance and plotted against drug concentration. IC50 values, the drug concentrations that reduce the mean absorbance at 570 nm to 50% of those in the untreated control wells, were calculated by the four-parameter logistic (4-PL) model. Evaluation was based on means from at least four independent experiments.
The new synthetized pyrrolo[1,2-h][1,7]naphthyridinones 7 and pyrido[2,3-c]pyrrolo[1,2-a]azepinones 8 were screened for their cytotoxicity (in the dark) and photocitotoxicity (upon UVA light irradiation at 2.0 J/cm^2) profile on human TNBC cells, MDA-MB-231. The cytotoxicity/photocytotoxicity parameters, expressed in terms of IC50 values obtained by MTT test after 24 h of drug-exposure, are listed in Table 2.

MDA-MB-231 cells [3] = assay: Intracellular ROS production (CM-H2DCFDA) under UVA; format: cell-based, human; conditions: MDA-MB-231, 25 µM, 90 min, UVA 2.0 J/cm^2; antimycin 3 µM positive control
Experimental: The production of ROS was measured in MDA-MB-231 cells (10^4 per well) grown for 24 h in a 96-well plate in RPMI medium without phenol red (Merk, Germany). Cells were then washed with PBS and loaded with 10 μM 5-(and-6)-chloromethyl-2′,7′-dichlorodihydrofluorescein diacetate acetyl ester (CM–H2DCFDA) (Molecular Probes-Invitrogen, Eugene, OR) for 45 min, in the dark. Afterwards, cells were washed with PBS and incubated with tested compounds (25 µM) for 90 min and after that exposed to UVA light (2.0 J/cm^2). Fluorescence increase was estimated utilizing the wavelengths of 485 nm (excitation) and 527 nm (emission) in a VICTOR X3 (PerkinElmer, USA) plate reader. Antimycin (3 μM, Merk), a potent inhibitor of Complex III in the electron transport chain, was used as positive control.
ROS production under light (UVA, 2.0 J/cm^2) was evaluated in MDA-MB-231 cell samples treated with increasing concentrations of tested compounds or antimycin, a potent inhibitor of Complex III of mitochondria electron chain, used as a positive control under the same experimental conditions (Fig. 4).
Fig. 4 Cellular ROS production (A) and total thiol redox state (B). A Effect of UVA activated tested compounds (25 µM) or antimycin (3 µM) on hydrogen peroxide formation in MDA-MB-231 cancer cells. B Sulfhydryl content in MDA-MB-231 cancer cells incubated for 24 h with UVA activated tested compounds. The sulfhydryl group amount was determined by the DTNB assay. Error bars indicate S.D

[4] = MDA-MB-231, in the dark, 1 h pre-treatment, recovered for total 24 h, read-out: Dark IC50 (µM) ± S.D
[5] = light or radiation study, MDA-MB-231, 1 h pre-treatment, UVA 2.0 J/cm^2, recovered for total 24 h, read-out: UVA (2.0 J/cm^2) IC50 (µM) ± S.D

| Stability under UVA irradiation (UV-Vis spectra) [1] | Structure (SMILES) | Photodegradation at the light dose of the cytotoxic experiments [1] | IC50 (MDA-MB-231 cells [2]; [4]) [µM] | IC50 (MDA-MB-231 cells [2]; [5]) [µM] | Cellular ROS production (hydrogen peroxide formation) (MDA-MB-231 cells [3]) |
| --- | --- | --- | --- | --- | --- |
| very unstable under light | CCOC(=O)c1ccc2n1CCc1cc(S(=O)(=O)c3ccccc3)c(OC)nc1-2 [Compound 7h, Ethyl 3-(benzenesulfonyl)-2-methoxy-5,6-dihydropyrrolo[1,2-h][1,7]naphthyridine-8-carboxylate] | photodegradation was very weak | > 50 | 4.4 ± 0.5 | highest increase in cellular ROS production; also recorded: hydrogen peroxide content comparable to that induced by antimycin |
| very unstable under light | CCOC(=O)c1ccc2n1CCCc1cc(S(=O)(=O)c3ccccc3)c(OC)nc1-2 [Compound 8e, Ethyl 3-(benzenesulfonyl)-2-methoxy-6,7-dihydro-5H-pyrido[2,3-c]pyrrolo[1,2-a]azepine-9-carboxylate] | photodegradation was very weak | > 50 | 15.3 ± 1.7 | highest increase in cellular ROS production |
